The values below come from patent publication US8937092B2, “Aryl or N-heteroaryl substituted methanesulfonamide derivatives as vanilloid receptor ligands” (Gruenenthal GmbH, priority 2011, dated 2015).

The first assay has as its target vanilloid receptor 1 (VR1/TRPV1 receptor) (Homo sapiens, UniProt Q8NER1). Description: Functional FLIPR Ca2+ influx assay on vanilloid receptor 1, capsaicin (Cap) stimulus. The format is cell-based. The settings on record: Ki from IC50 by Cheng-Prusoff, read-out: (f) Ki (human being) [nM], Cap. As for the experimental part:
Furthermore, preference may be given to compounds according to the invention that cause a 50 percent displacement of capsaicin, which is present at a concentration of 100 nM, in a FLIPR assay with CHO K1 cells which were transfected with the human VR1 gene at a concentration of less than 2,000 nM, preferably less than 1,000 nM, particularly preferably less than 300 nM, most particularly preferably less than 100 nM, even more preferably less than 75 nM, additionally preferably less than 50 nM, most preferably less than 10 nM.
In the process, the Ca^2+ influx is quantified in the FLIPR assay with the aid of a Ca^2+-sensitive dye (type Fluo-4, Molecular Probes Europe BV, Leiden, the Netherlands) in a fluorescent imaging plate reader (FLIPR, Molecular Devices, Sunnyvale, USA), as described hereinafter.
Pharmacological Methods I. Functional Testing Carried Out on the Vanilloid Receptor 1 (VRI/TRPV1 Receptor) […]
The number of cells in the suspension is set to 3×10^5 per mL and 150 μL of this suspension are in each case introduced into a recess in the cell culture plates coated as described hereinbefore. In the incubator the plates are left for two to three days at 37° C., 5% by volume of CO2 and 95% relative humidity. Subsequently, the cells are loaded with 2 μM of Fluo-4 and 0.01% by volume of Pluronic F127 (Molecular Probes Europe BV, Leiden, the Netherlands) in HBSS buffer (Hank's buffered saline solution, Gibco Invitrogen GmbH, Karlsruhe, Germany) for 30 min at 37° C., washed 3 times with HBSS buffer and after further incubation for 15 minutes at room temperature used for Ca^2+ measurement in a FLIPR assay. The Ca^2+-dependent fluorescence is in this case measured before and after the addition of substances (λex=488 nm, λem=540 nm). Quantification is carried out by measuring the highest fluorescence intensity (FC, fluorescence counts) over time.
The FLIPR protocol consists of 2 substance additions. First the compounds to be tested (10 μM) are pipetted onto the cells and the Ca^2+ influx is compared with the control (capsaicin 10 μM). This provides the result in % activation based on the Ca^2+ signal after the addition of 10 μM of capsaicin (CP). After 5 minutes' incubation, 100 nM of capsaicin are applied and the Ca^2+ influx is also determined.
Desensitising agonists and antagonists lead to suppression of the Ca^2+ influx. The % inhibition is calculated compared to the maximum achievable inhibition with 10 μM of capsazepine.
Triple analyses (n=3) are carried out and repeated in at least 3 independent experiments (N=4).
Starting from the percentage displacement caused by different concentrations of the compounds to be tested of general formula I, IC50 inhibitory concentrations which cause a 50-percent displacement of capsaicin were calculated. K, values for the test substances were obtained by conversion by means of the Cheng-Prusoff equation (Cheng, Prusoff; Biochem. Pharmacol. 22, 3099-3108, 1973).
The affinity of the compounds according to the invention for the vanilloid receptor 1 (VR1/TRPV1 receptor) was determined as described herein before (pharmacological method I).
The value after the “@” symbol indicates the concentration at which the inhibition (as a percentage) was respectively determined.
The Ki is a measure of affinity in units of concentration, obtained from inhibition or displacement. Regarding “2-(3-methyl-4-(methylsulfonamidomethyl)phenyl)-N-((2-m-tolyl-6-(trifluoromethyl)pyridin-3-yl)methyl)propanamide [Example 97]”, the Ki turned out to be 4 nM.
In the case of `Cc1cccc(-c2nc(C(F)(F)F)ccc2CNC(=O)Nc2ccc(CNS(C)(=O)=O)cc2)c1` [Example 2, N-(4-(3-((2-m-tolyl-6-(trifluoromethyl)pyridin-3-yl)methyl)ureido)benzyl)methanesulfonamide], the Ki amounted to 10 nM.
As for `Cc1cccc(-c2nc(C(F)(F)F)ccc2CNC(=O)C(C)c2ccc(CNS(C)(=O)=O)cc2)c1` (stereo not drawn) [Example 4, 2-(4-(methylsulfonamidomethyl)phenyl)-N-((2-m-tolyl-6-(trifluoromethyl)pyridin-3-yl)methyl)propanamide], the Ki is 66 nM.
As to `CC(C(=O)NCc1ccc(C(F)(F)F)nc1-c1ccccc1)c1ccc(CNS(C)(=O)=O)c(F)c1` (stereo not drawn) [Example 5, 2-(3-fluoro-4-(methylsulfonamidomethyl)phenyl)-N-((2-phenyl-6-(trifluoromethyl)pyridin-3-yl)methyl)propanamide], the Ki turned out to be 31 nM.
In the case of `CC(C(=O)NCc1ccc(C(F)(F)F)nc1-c1cccc(F)c1)c1ccc(CNS(C)(=O)=O)c(F)c1` (stereo not drawn) [Example 7, 2-(3-fluoro-4-(methylsulfonamidomethyl)phenyl)-N-((2-(3-fluorophenyl)-6-(trifluoromethyl)pyridin-3-yl)methyl)propanamide], the Ki turned out to be 61 nM.
`CC(C(=O)NCc1ccc(C(F)(F)F)nc1-c1ccc(F)cc1)c1ccc(CNS(C)(=O)=O)c(F)c1` (stereo not drawn) [Example 8, 2-(3-fluoro-4-(methylsulfonamidomethyl)phenyl)-N-((2-(4-fluorophenyl)-6-(trifluoromethyl)pyridin-3-yl)methyl)propanamide]: the Ki was found to be 66 nM.
Consider `CC(C(=O)NCc1ccc(C(F)(F)F)nc1-c1cccc(F)c1F)c1ccc(CNS(C)(=O)=O)c(F)c1` (stereo not drawn) [Example 9, N-((2-(2,3-difluorophenyl)-6-(trifluoromethyl)pyridin-3-yl)methyl)-2-(3-fluoro-4-(methylsulfonamidomethyl)phenyl)propanamide], for which the inhibitory constant (Ki) was 47 nM.
Still for that read-out and setting: in the case of `CC(C(=O)NCc1ccc(C(F)(F)F)nc1-c1ccc(F)c(F)c1)c1ccc(CNS(C)(=O)=O)c(F)c1` (stereo not drawn) [Example 10, N-((2-(3,4-difluorophenyl)-6-(trifluoromethyl)pyridin-3-yl)methyl)-2-(3-fluoro-4-(methylsulfonamidomethyl)phenyl)propanamide] it was 17 nM; in that of `CC(C(=O)NCc1ccc(C(F)(F)F)nc1-c1cc(F)cc(F)c1)c1ccc(CNS(C)(=O)=O)c(F)c1` (stereo not drawn) [Example 11, N-((2-(3,5-difluorophenyl)-6-(trifluoromethyl)pyridin-3-yl)methyl)-2-(3-fluoro-4-(methylsulfonamidomethyl)phenyl)propanamide], 41 nM.
Turning to `CC(C(=O)NCc1ccc(C(F)(F)F)nc1-c1cc(F)ccc1F)c1ccc(CNS(C)(=O)=O)c(F)c1` (stereo not drawn) [Example 12, N-((2-(2,5-difluorophenyl)-6-(trifluoromethyl)pyridin-3-yl)methyl)-2-(3-fluoro-4-(methylsulfonamidomethyl)phenyl)propanamide], the Ki was found to be 42 nM.
As to `Cc1ccc(-c2nc(C(F)(F)F)ccc2CNC(=O)C(C)c2ccc(CNS(C)(=O)=O)c(F)c2)cc1F` (stereo not drawn) [Example 13, 2-(3-fluoro-4-(methylsulfonamidomethyl)phenyl)-N-((2-(3-fluoro-4-methylphenyl)-6-(trifluoromethyl)pyridin-3-yl)methyl)propanamide], the Ki stood at 26 nM.
Turning to `COc1ccc(-c2nc(C(F)(F)F)ccc2CNC(=O)C(C)c2ccc(CNS(C)(=O)=O)c(F)c2)cc1F` (stereo not drawn) [Example 14, 2-(3-fluoro-4-(methylsulfonamidomethyl)phenyl)-N-((2-(3-fluoro-4-methoxyphenyl)-6-(trifluoromethyl)pyridin-3-yl)methyl)propanamide], the Ki was determined as 68 nM.
For `CC(C(=O)NCc1ccc(C(F)(F)F)nc1-c1cccc(Cl)c1)c1ccc(CNS(C)(=O)=O)c(F)c1` (stereo not drawn) [Example 15, N-((2-(3-chlorophenyl)-6-(trifluoromethyl)pyridin-3-yl)methyl)-2-(3-fluoro-4-(methylsulfonamidomethyl)phenyl)propanamide], the Ki came to 10 nM.
Consider `CC(C(=O)NCc1ccc(C(F)(F)F)nc1-c1ccc(F)c(Cl)c1)c1ccc(CNS(C)(=O)=O)c(F)c1` (stereo not drawn) [Example 16, N-((2-(3-chloro-4-fluorophenyl)-6-(trifluoromethyl)pyridin-3-yl)methyl)-2-(3-fluoro-4-(methylsulfonamidomethyl)phenyl)propanamide], for which the Ki was 5 nM.
Turning to `C[C@H](C(=O)NCc1ccc(C(F)(F)F)nc1-c1ccc(F)c(Cl)c1)c1ccc(CNS(C)(=O)=O)c(F)c1` [Example 17, (S)—N-((2-(3-chloro-4-fluorophenyl)-6-(trifluoromethyl)pyridin-3-yl)methyl)-2-(3-fluoro-4-(methylsulfonamidomethyl)phenyl)propanamide], the Ki is 4 nM.
`Cc1cccc(-c2nc(C3CC3)ccc2CNC(=O)C(C)c2ccc(CNS(C)(=O)=O)c(F)c2)c1` (stereo not drawn) [Example 20, N-((6-cyclopropyl-2-m-tolylpyridin-3-yl)methyl)-2-(3-fluoro-4-(methylsulfonamidomethyl)phenyl)propanamide]: the Ki came to 45 nM.
On the same count and under the same terms, in the case of `Cc1cccc(-c2cc(C(C)(C)C)ccc2CNC(=O)C(C)c2ccc(CNS(C)(=O)=O)c(F)c2)c1` (stereo not drawn) [Example 21, N-((5-tert-butyl-3′-methylbiphenyl-2-yl)methyl)-2-(3-fluoro-4-(methylsulfonamidomethyl)phenyl)propanamide] it was 37 nM; in that of `Cc1cccc(-c2cc(C(F)(F)F)ccc2CNC(=O)C(C)c2ccc(CNS(C)(=O)=O)c(F)c2)c1` (stereo not drawn) [Example 22, 2-(3-fluoro-4-(methylsulfonamidomethyl)phenyl)-N-((3′-methyl-5-(trifluoromethyl)biphenyl-2-yl)methyl)propanamide], 23 nM.
Consider `Cc1cccc(-c2nc(C(C)(C)C)ccc2CNC(=O)C(C)c2ccc(CNS(C)(=O)=O)c(F)c2)c1` (stereo not drawn) [Example 23, N-((6-tert-butyl-2-m-tolylpyridin-3-yl)methyl)-2-(3-fluoro-4-(methylsulfonamidomethyl)phenyl)propanamide], for which the Ki was 24 nM.
Turning to `Cc1cccc(-c2nc(C(F)(F)F)ccc2CNC(=O)C(C)c2ccc(CNS(C)(=O)=O)c(F)c2)c1` (stereo not drawn) [Example 24, 2-(3-fluoro-4-(methylsulfonamidomethyl)phenyl)-N-((2-m-tolyl-6-(trifluoromethyl)pyridin-3-yl)methyl)propanamide], the Ki came out at 6 nM.

The same assay, now with this note: inhibition at 1 μM, read-out: (f) inhibition (human being), Cap, @1 μM.
As a reminder, the inhibition is the relative decrease from the control value, in per cent. With `Cc1ccccc1-c1nc(C(F)(F)F)ccc1CNC(=O)C(C)c1ccc(CNS(C)(=O)=O)c(F)c1` (stereo not drawn) [Example 19, 2-(3-fluoro-4-(methylsulfonamidomethyl)phenyl)-N-((2-o-tolyl-6-(trifluoromethyl)pyridin-3-yl)methyl)propanamide], the inhibition at 1 µM was found to be 18%.

The assay is the same for the next values; noted with them: inhibition at 5 μM, read-out: (f) inhibition (human being), Cap, @5 μM.
`Cc1cccc(-c2nc(C(F)(F)F)ccc2CNC(=O)C(C)c2cccc(CNS(C)(=O)=O)c2)c1` (stereo not drawn) [Example 1, 2-(3-(methylsulfonamidomethyl)phenyl)-N-((2-m-tolyl-6-(trifluoromethyl)pyridin-3-yl)methyl)propanamide]: the inhibition at 5 µM was determined as 44%.
Same read-out and setting: in the case of `CC(C(=O)NCc1ccc(C(F)(F)F)nc1-c1ccccc1F)c1ccc(CNS(C)(=O)=O)c(F)c1` (stereo not drawn) [Example 6, 2-(3-fluoro-4-(methylsulfonamidomethyl)phenyl)-N-((2-(2-fluorophenyl)-6-(trifluoromethyl)pyridin-3-yl)methyl)propanamide] it was 37%.
As to `C[C@@H](C(=O)NCc1ccc(C(F)(F)F)nc1-c1ccc(F)c(Cl)c1)c1ccc(CNS(C)(=O)=O)c(F)c1` [Example 18, (R)—N-((2-(3-chloro-4-fluorophenyl)-6-(trifluoromethyl)pyridin-3-yl)methyl)-2-(3-fluoro-4-(methylsulfonamidomethyl)phenyl)propanamide], the inhibition at 5 µM amounted to 42%.
